Measured values reported in BindingDB's records for doi:10.1074/jbc.M113.537704 (Icahn School Of Medicine At Mount Sinai, 2014).

Key:
[1] = target: EEF1AKMT4-ECE2 readthrough transcript protein (Homo sapiens, UniProt P0DPD8); assay: Enzyme Activity Assay; settings: pH 5.5
Protocol: (§1) Recombinant ECE2 (32.5 ng) with a specific activity of 12 pmol/min/μg protein was generated as described previously. Secreted soluble recombinant ECE1 (30 ng) with a specific activity of 750 pmol/min/μg protein was generated and purified using a protocol similar to that used for ECE2. Solubilized midbrain membranes (10 μg) from wildtype or ECE2 knock-out mice were prepared as described. Enzymatic activity, in the absence or presence of the ECE2 inhibitor S136492 or the ECE1 inhibitor SM19712, was assayed using the synthetic quenched fluorescent substrate McaBk2 (10 μM) at 37 °C with either 0.2 M sodium acetate buffer, pH 5.5, or 50 mM Tris-Cl buffer, pH 7.4, as described previously [Gagnidze et al., J. Med. Chem., 51:3378-3387; Ouimet et al., J. Biol. Chem., 285:34390-34400].

[2] = target: T1, Endothelin-converting enzyme 1 (Homo sapiens, UniProt P42892); assay: Enzyme Activity Assay
T1 sequence (P42892 whole entry): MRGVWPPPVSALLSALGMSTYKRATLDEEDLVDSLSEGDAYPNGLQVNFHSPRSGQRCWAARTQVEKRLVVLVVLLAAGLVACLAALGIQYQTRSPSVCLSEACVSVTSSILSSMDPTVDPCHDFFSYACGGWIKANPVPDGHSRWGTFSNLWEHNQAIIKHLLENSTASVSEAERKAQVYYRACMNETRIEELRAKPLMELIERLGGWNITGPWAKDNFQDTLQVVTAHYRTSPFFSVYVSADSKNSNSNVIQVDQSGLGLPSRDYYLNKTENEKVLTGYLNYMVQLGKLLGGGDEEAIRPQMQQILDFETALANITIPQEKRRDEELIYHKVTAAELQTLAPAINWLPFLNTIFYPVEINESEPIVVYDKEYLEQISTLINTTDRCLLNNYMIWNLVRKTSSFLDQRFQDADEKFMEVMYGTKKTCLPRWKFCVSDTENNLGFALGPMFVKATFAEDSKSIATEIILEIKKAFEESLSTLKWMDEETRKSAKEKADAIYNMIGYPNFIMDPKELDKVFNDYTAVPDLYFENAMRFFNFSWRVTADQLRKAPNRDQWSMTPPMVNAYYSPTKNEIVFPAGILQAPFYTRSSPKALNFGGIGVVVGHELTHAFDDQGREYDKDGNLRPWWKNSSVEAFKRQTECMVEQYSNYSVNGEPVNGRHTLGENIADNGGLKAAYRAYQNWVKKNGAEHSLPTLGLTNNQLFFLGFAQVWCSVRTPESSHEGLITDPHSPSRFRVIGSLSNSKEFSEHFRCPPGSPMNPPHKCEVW
Protocol: as §1

Sequence of EEF1AKMT4-ECE2 readthrough transcript protein (P0DPD8 whole entry): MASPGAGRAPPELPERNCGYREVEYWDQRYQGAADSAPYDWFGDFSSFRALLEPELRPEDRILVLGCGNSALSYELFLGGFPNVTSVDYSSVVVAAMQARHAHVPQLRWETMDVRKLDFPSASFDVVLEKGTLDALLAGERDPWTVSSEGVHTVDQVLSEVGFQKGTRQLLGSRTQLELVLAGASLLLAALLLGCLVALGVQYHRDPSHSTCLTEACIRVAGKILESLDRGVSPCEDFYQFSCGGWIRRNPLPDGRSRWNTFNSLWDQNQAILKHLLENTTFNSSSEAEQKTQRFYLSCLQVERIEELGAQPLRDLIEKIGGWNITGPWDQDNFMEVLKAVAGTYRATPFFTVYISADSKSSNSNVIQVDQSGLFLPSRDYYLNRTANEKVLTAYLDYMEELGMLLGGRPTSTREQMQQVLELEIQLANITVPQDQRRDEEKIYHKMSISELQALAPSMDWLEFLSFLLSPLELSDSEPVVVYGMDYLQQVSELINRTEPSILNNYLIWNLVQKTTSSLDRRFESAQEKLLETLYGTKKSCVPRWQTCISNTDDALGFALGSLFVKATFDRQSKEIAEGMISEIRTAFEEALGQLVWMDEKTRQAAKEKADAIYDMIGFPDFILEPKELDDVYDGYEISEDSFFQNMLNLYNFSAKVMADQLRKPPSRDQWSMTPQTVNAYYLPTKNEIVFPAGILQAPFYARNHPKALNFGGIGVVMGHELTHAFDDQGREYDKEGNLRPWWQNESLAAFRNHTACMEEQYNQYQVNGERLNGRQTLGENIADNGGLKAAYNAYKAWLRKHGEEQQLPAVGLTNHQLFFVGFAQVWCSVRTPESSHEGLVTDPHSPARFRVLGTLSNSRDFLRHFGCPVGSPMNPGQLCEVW

Row | IC50 [1] [nM] | IC50 ([2]; pH 5.5) [nM] | IC50 ([2]; pH 7.4) [nM] | SMILES
1 | 5 | > 100000 | 1100 | Cc1[nH]nc(NC(=O)NS(=O)(=O)c2ccc(Cl)cc2)c1C#N [SM19712]
2 | 1600 | > 100000 | > 100000 | Oc1ccccc1/C=C\c1ccc2ccccc2n1 [2-(2-(quinolin-2-yl)vinyl)phenol]
